Patent US11993599B2, “Therapeutic compounds” (Genentech, Inc., priority 2021, dated 2024)

What was measured:
BRG1 = target: T1, BRG1 (Homo sapiens, UniProt P51532); test: Immunofluorescence assay for BRG1 degradation in SW1573 cells; assay type: cell-based; settings: 20 hours incubation; for DC50: immunofluorescence mean nuclear signal, read-out: BRG1 IF Degradation IC50; for Dmax: SW1573, 20 h, normalized to a known degrader control, read-out: BRG1 IF Degradation Sinf (%)
T1 construct: either BRM primary antibody (Cell signaling Cat #11966) or BRG primary antibody (Abcam, ab 110641); endogenous in cells; host or cells: SW1573
Method in brief: (§1)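 Degradation measured as loss of nuclear BRM or BRG1 staining in SW1573 cells after 20 h compound exposure. Signal per cell was imaged and normalized to a known degrader; curves with floating maximum yielded IC50 and Dmax.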

BRM = BRM (Homo sapiens, UniProt P51531); test: Immunofluorescence assay for BRM degradation in SW1573 cells; assay type: cell-based; parameters: treated overnight at 4° C. with either BRM primary antibody (Cell signaling Cat #11966) or BRG primary antibody; endogenous in cells; host or cells: SW1573; settings: 20 hours incubation; for DC50: immunofluorescence mean nuclear signal, read-out: BRM IF Degradation IC50; for BRM IF Degradation Sinf (%): normalized to a known degrader control
Method in brief: as §1

Chain of BRM (P51531 whole entry): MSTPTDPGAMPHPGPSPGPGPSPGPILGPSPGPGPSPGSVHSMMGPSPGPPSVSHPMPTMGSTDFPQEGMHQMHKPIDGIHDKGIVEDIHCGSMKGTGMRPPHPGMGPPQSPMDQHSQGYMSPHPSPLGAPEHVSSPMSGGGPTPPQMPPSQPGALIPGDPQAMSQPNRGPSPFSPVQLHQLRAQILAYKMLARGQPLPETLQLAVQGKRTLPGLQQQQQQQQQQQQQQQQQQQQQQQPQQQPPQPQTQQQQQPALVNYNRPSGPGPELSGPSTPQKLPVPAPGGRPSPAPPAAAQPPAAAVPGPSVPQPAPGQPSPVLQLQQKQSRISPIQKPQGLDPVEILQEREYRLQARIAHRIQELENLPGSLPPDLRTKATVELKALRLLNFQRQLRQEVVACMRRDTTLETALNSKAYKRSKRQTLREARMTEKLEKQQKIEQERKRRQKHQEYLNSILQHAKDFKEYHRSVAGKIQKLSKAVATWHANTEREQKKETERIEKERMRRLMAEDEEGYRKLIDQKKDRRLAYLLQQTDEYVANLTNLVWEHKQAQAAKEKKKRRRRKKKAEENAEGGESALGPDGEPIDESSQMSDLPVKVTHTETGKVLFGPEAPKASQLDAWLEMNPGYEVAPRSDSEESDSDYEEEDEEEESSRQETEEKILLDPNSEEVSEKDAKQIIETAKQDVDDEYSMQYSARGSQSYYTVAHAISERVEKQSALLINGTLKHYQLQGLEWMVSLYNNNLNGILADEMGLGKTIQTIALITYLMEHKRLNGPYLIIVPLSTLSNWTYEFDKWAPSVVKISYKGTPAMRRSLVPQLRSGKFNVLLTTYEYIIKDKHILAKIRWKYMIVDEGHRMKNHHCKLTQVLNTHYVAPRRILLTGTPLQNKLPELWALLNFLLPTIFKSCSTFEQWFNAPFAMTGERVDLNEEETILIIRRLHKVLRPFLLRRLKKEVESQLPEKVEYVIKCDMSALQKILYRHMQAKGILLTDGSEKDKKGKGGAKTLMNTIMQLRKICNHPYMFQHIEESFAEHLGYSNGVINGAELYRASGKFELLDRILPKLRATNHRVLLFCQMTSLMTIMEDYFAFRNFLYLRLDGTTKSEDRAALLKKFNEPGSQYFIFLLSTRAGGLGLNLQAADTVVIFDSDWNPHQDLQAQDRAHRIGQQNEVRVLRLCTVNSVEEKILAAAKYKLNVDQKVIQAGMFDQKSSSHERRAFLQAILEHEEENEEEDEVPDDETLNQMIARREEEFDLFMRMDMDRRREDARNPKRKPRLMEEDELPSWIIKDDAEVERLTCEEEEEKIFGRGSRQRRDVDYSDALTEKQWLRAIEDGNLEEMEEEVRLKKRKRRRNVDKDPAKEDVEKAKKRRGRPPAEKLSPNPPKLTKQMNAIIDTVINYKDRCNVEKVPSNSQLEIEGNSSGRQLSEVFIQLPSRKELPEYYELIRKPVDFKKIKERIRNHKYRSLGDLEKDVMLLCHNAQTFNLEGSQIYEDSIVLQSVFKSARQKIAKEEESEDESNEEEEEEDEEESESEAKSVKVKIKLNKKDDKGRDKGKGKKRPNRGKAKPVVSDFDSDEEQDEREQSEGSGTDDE
T1 sequence (P51532 whole entry): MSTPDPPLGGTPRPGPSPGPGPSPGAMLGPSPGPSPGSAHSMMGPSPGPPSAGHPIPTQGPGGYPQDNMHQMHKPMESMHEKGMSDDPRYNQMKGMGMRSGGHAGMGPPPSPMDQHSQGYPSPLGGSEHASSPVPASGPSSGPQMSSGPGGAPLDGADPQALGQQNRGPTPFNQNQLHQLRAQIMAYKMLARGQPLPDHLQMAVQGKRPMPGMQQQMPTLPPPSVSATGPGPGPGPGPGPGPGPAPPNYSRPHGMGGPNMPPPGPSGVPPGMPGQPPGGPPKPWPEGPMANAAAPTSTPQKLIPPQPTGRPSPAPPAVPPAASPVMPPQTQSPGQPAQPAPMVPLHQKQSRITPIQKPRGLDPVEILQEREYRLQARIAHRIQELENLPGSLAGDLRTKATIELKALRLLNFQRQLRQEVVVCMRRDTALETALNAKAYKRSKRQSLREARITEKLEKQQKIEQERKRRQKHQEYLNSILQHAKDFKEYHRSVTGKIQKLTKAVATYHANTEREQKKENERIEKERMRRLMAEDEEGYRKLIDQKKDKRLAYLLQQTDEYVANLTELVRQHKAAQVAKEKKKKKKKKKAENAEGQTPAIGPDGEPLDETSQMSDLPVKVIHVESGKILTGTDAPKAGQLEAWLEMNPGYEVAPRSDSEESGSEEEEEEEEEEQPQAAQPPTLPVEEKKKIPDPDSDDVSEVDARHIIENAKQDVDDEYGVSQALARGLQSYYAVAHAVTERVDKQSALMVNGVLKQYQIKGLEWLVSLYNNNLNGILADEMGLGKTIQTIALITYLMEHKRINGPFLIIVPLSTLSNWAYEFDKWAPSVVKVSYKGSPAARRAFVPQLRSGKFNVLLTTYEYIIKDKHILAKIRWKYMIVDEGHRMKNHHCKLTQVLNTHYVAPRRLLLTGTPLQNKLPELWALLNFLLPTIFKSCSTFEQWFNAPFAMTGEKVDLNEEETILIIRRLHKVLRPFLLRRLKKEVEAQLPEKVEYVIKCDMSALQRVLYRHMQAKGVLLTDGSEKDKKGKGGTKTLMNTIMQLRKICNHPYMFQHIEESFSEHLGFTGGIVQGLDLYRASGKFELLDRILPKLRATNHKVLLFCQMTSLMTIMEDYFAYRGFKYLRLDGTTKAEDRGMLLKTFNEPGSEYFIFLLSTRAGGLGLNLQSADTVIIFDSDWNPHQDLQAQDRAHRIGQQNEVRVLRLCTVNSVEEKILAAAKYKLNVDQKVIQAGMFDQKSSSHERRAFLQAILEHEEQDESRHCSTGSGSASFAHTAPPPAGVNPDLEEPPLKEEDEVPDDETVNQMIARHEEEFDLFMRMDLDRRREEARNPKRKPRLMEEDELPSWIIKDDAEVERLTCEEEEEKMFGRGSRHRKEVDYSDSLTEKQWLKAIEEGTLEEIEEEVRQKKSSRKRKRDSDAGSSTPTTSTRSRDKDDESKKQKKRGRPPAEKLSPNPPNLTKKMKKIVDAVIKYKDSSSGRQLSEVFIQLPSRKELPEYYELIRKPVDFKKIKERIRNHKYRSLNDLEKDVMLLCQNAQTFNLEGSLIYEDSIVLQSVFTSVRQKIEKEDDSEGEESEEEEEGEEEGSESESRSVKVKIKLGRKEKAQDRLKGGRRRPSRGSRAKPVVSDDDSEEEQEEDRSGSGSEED

Structure (SMILES) | DC50 (BRG1) [nM] | Dmax (BRG1) [%] | DC50 (BRM) [nM] | BRM IF Degradation Sinf (%) (BRM)
Nc1nnc(-c2ccccc2O)cc1N1CC2CCC(C1)N2c1ccnc(C#CCN2CC3(CCCCO3)C2)c1 [Compound 66, 2-[6-amino-5-[8-[2-[3-(5-oxa-2-azaspiro[3.5]nonan-2-yl)prop-1-ynyl]-4-pyridyl]-3,8-diazabicyclo[3.2.1]octan-3-yl]pyridazin-3-yl]phenol] | 10 to 100 | 30 to 70 | < 10 | F (F indicates −71%-−120%)
CS(=O)(=O)C1CN(CC#Cc2cc(N3C4CCC3CN(c3cc(-c5ccccc5O)nnc3N)C4)ccn2)C1 [Compound 227, 2-[6-amino-5-[8-[2-[3-(3-methylsulfonylazetidin-1-yl)prop-1-ynyl]-4-pyridyl]-3,8-diazabicyclo[3.2.1]octan-3-yl]pyridazin-3-yl]phenol] | > 100 |  | > 100 | E (E indicates −30%-−70%)
Nc1nnc(-c2ccccc2O)cc1N1CC2CCC(C1)N2c1ccnc(C#CCN2C[C@@H]3C[C@H]2[C@H]2C[C@@H]32)c1 [Compound 123, 2-[6-amino-5-[8-[2-[3-[(1R,2S,4S,5S)-6-azatricyclo[3.2.1.02,4]octan-6-yl]prop-1-ynyl]-4-pyridyl]-3,8-diazabicyclo[3.2.1]octan-3-yl]pyridazin-3-yl]phenol] | < 10 | 30 to 70 | < 10 | E (E indicates −30%-−70%)
CC1CCCCN(CC#Cc2cc(N3C4CCC3CN(c3cc(-c5ccccc5O)nnc3N)C4)ccn2)C1 (stereo not shown) [Compound 192, 2-[6-amino-5-[8-[2-[3-(3-methylazepan-1-yl)prop-1-ynyl]-4-pyridyl]-3,8-diazabicyclo[3.2.1]octan-3-yl]pyridazin-3-yl]phenol] | < 10 | 71 to 120 | < 10 | F (F indicates −71%-−120%)
CC1CC(O)CCN(CC#Cc2cc(N3C4CCC3CN(c3cc(-c5ccccc5O)nnc3N)C4)ccn2)C1 (stereo not shown) [Compound 219, 1-[3-[4-[3-[3-amino-6-(2-hydroxyphenyl)pyridazin-4-yl]-3,8-diazabicyclo[3.2.1]octan-8-yl]-2-pyridyl]prop-2-ynyl]-6-methyl-azepan-4-ol] | < 10 | 71 to 120 | < 10 | F (F indicates −71%-−120%)
COC(=O)C1CCS(=O)(=O)C12CN(CC#Cc1cc(N3C4CCC3CN(c3cc(-c5ccccc5O)nnc3N)C4)ccn1)C2 (stereo not shown) [Compound 183, methyl 2-[3-[4-[3-[3-amino-6-(2-hydroxyphenyl)pyridazin-4-yl]-3,8-diazabicyclo[3.2.1]octan-8-yl]-2-pyridyl]prop-2-ynyl]-5,5-dioxo-51ambda6-thia-2-azaspiro[3.4]octane-8-carboxylate] | > 100 |  | > 100 | E (E indicates −30%-−70%)
N#CCC1CN(CC#Cc2cc(N3C4CCC3CN(c3cc(-c5ccccc5O)nnc3N)C4)ccn2)C1 [Compound 152, 2-[1-[3-[4-[3-[3-amino-6-(2-hydroxyphenyl)pyridazin-4-yl]-3,8-diazabicyclo[3.2.1]octan-8-yl]-2-pyridyl]prop-2-ynyl]azetidin-3-yl]acetonitrile] | < 10 | 30 to 70 | < 10 | E (E indicates −30%-−70%)
Nc1nnc(-c2ccccc2O)cc1N1CCC2(CCN(c3ccnc(C#CCN4CCCCCC4)c3)CC2)CC1 [Compound 249, 2-(6-amino-5-(9-(2-(3-(azepan-1-yl)prop-1-yn-1-yl)pyridin-4-yl)-3,9-diazaspiro[5.5]undecan-3-yl)pyridazin-3-yl)phenol] | > 100 |  | < 10 | E (E indicates −30%-−70%)
Nc1nnc(-c2ccccc2O)cc1N1CC2CCC(C1)N2c1ccnc(C#CCN2CC3CCCC3C2)c1 (stereo not shown) [Compound 63, 2-[5-[8-[2-[3-(3,3a,4,5,6,6a-hexahydro-1H-cyclopenta[c]pyrrol-2-yl)prop-1-ynyl]-4-pyridyl]-3,8-diazabicyclo[3.2.1]octan-3-yl]-6-amino-pyridazin-3-yl]phenol] | < 10 | 30 to 70 | < 10 | F (F indicates −71%-−120%)
Nc1nnc(-c2ccccc2O)cc1N1CC2CCC(C1)N2c1ccnc(C#CCN2CC3CC3(CO)C2)c1 (stereo not shown) [Compound 137, 2-[6-amino-5-[8-[2-[3-[1-(hydroxymethyl)-3-azabicyclo[3.1.0]hexan-3-yl]prop-1-ynyl]-4-pyridyl]-3,8-diazabicyclo[3.2.1]octan-3-yl]pyridazin-3-yl]phenol] | < 10 | 30 to 70 | < 10 | E (E indicates −30%-−70%)
Nc1nnc(-c2ccccc2O)cc1N1CC2CCC(C1)N2c1ccnc(C#CCN2CC(C(F)F)C2)c1 [Compound 95, 2-[6-amino-5-[8-[2-[3-[3-(difluoromethyl)azetidin-1-yl]prop-1-ynyl]-4-pyridyl]-3,8-diazabicyclo[3.2.1]octan-3-yl]pyridazin-3-yl]phenol] | < 10 | 30 to 70 | < 10 | E (E indicates −30%-−70%)
CC1(F)CCCCN(CC#Cc2cc(N3C4CCC3CN(c3cc(-c5ccccc5O)nnc3N)C4)ccn2)C1 (stereo not shown) [Compound 243, 2-[6-amino-5-[8-[2-[3-(3-fluoro-3-methyl-azepan-1-yl)prop-1-ynyl]-4-pyridyl]-3,8-diazabicyclo[3.2.1]octan-3-yl]pyridazin-3-yl]phenol] | < 10 | 30 to 70 | 10 to 100 | F (F indicates −71%-−120%)
Nc1nnc(-c2ccccc2O)cc1N1CC2CCC(C1)N2c1ccnc(C#CCN2CCCCC(F)C2)c1 (stereo not shown) [Compound 194, 2-[6-amino-5-[8-[2-[3-(3-fluoroazepan-1-yl)prop-1-ynyl]-4-pyridyl]-3,8-diazabicyclo[3.2.1]octan-3-yl]pyridazin-3-yl]phenol] | < 10 | 30 to 70 | < 10 | F (F indicates −71%-−120%)
Nc1nnc(-c2ccccc2O)cc1N1CC2CCC(C1)N2c1ccnc(C#CCN2CCC3(CCCO3)C2)c1 (stereo not shown) [Compound 44, 2-[6-amino-5-[8-[2-[3-(1-oxa-7-azaspiro[4.4]nonan-7-yl)prop-1-ynyl]-4-pyridyl]-3,8-diazabicyclo[3.2.1]octan-3-yl]pyridazin-3-yl]phenol] | 10 to 100 | 30 to 70 | < 10 | E (E indicates −30%-−70%)
Nc1nnc(-c2ccccc2O)cc1N1CC2CCC(C1)N2c1ccnc(C#CCN2CC(c3ccccc3)C2)c1 [Compound 234, 2-[6-amino-5-[8-[2-[3-(3-phenylazetidin-1-yl)prop-1-ynyl]-4-pyridyl]-3,8-diazabicyclo[3.2.1]octan-3-yl]pyridazin-3-yl]phenol] | 10 to 100 | 71 to 120 | 10 to 100 | E (E indicates −30%-−70%)
Nc1nnc(-c2ccccc2O)cc1N1CC2CCC(C1)N2c1ccnc(C#CCN2Cc3cn[nH]c3C2)c1 [Compound 149, 2-[6-amino-5-[8-[2-[3-(4,6-dihydro-1H-pyrrolo[3,4-c]pyrazol-5-yl)prop-1-ynyl]-4-pyridyl]-3,8-diazabicyclo[3.2.1]octan-3-yl]pyridazin-3-yl]phenol] | 10 to 100 | 0 to 30 | 10 to 100 | E (E indicates −30%-−70%)
Nc1nnc(-c2ccccc2O)cc1N1CC2CCC(C1)N2c1ccnc(C#CCN2CC(C3CC3)C2)c1 [Compound 150, 2-[6-amino-5-[8-[2-[3-(3-cyclopropylazetidin-1-yl)prop-1-ynyl]-4-pyridyl]-3,8-diazabicyclo[3.2.1]octan-3-yl]pyridazin-3-yl]phenol] | < 10 | 30 to 70 | < 10 | F (F indicates −71%-−120%)
Nc1nnc(-c2ccccc2O)cc1N1CC2CCC(C1)N2c1ccnc(C#CCN2CCCCCC2)n1 [Compound 245, 2-(6-amino-5-(8-(2-(3-(azepan-1-yl)prop-1-yn-1-yl)pyrimidin-4-yl)-3,8-diazabicyclo[3.2.1]octan-3-yl)pyridazin-3-yl)phenol] | < 10 | 30 to 70 | < 10 | F (F indicates −71%-−120%)
Nc1nnc(-c2ccccc2O)cc1N1CC2CCC(C1)N2c1ccnc(C#CCN2CCc3ccccc3CC2)c1 [Compound 202, 2-[6-amino-5-[8-[2-[3-(1,2,4,5-tetrahydro-3-benzazepin-3-yl)prop-1-ynyl]-4-pyridyl]-3,8-diazabicyclo[3.2.1]octan-3-yl]pyridazin-3-yl]phenol] | 10 to 100 | 30 to 70 | 10 to 100 | E (E indicates −30%-−70%)
Nc1nnc(-c2ccccc2O)cc1N1CC2CCC(C1)N2c1ccnc(C#CCN2CCOC(CF)C2)c1 (stereo not shown) [Compound 114, 2-[6-amino-5-[8-[2-[3-[2-(fluoromethyl)morpholin-4-yl]prop-1-ynyl]-4-pyridyl]-3,8-diazabicyclo[3.2.1]octan-3-yl]pyridazin-3-yl]phenol] | > 100 |  | 10 to 100 | E (E indicates −30%-−70%)
